Data taken from patent publication US20060069123A1, “Substituted dipiperidine CCR2 antagonists” (priority 2004, published 2006).

Assays:
THP-1 cells = assay: MCP-1 Induced Chemotaxis in THP-1 Cells; type: cell-based; settings: Homo sapiens; THP-1 cells, MCP-1 0.01 μg/mL, 3 hours; read-out: Inhibition of MCP-1 Induced Chemotaxis IC50
Protocol: MCP-1 Induced Chemotaxis in THP-1 Cells
MCP-1 induced chemotaxis was run in a 24-well chemotaxis chamber. MCP-1 (0.01 μg/mL) was added to the lower chamber and 100 μL of THP-1 cells (1×10^7 cell/mL) was added to the top chamber. Varying concentrations of test compound were added to the top and bottom chambers. Cells were allowed to chemotax for 3 hours at 37° C. and 5% CO2. An aliquot of the cells that had migrated to the bottom chamber was taken and counted then compared to vehicle.

CCR2 = biological target: T1, CCR2 (Homo sapiens, UniProt P41597)
T1 sequence (P41597 1-360 isoform P41597-2): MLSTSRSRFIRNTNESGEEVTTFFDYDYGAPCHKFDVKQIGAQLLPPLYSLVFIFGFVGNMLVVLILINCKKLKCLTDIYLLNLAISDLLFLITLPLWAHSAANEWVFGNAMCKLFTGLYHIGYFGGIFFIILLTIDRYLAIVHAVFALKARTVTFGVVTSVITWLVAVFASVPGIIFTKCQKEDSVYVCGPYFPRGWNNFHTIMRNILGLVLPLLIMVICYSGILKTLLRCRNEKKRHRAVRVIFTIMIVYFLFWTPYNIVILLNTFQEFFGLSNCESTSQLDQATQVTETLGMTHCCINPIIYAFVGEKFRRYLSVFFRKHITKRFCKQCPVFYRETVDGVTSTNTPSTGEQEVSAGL

IC50 (THP-1 cells)	IC50 (CCR2)	Structure (SMILES)
30 nM	10 nM	O=C(O)C(C1CCN(C(=O)/C=C/c2cc(F)c(F)c(F)c2)CC1)N1CCC(c2c[nH]c3ncccc23)CC1 (stereo not drawn) [Cpd 151, [4-(1H-pyrrolo[2,3-b]pyridin-3-yl)-piperidin-1-yl]-{1-[(2E)-3-(3,4,5-trifluoro-phenyl)-acryloyl]-piperidin-4-yl}-acetic acid]
3 nM	20 nM	O=C(O)C(C1CCN(C(=O)Nc2ccc(Cl)c(C(F)(F)F)c2)CC1)N1CCC(c2c[nH]c3ccccc23)CC1 (stereo not drawn) [Cpd 57, [1-(4-chloro-3-trifluoromethyl-phenylcarbamoyl)-piperidin-4-yl]-[4-(1H-indol-3-yl)-piperidin-1-yl]-acetic acid]
10 nM	2 nM	O=C(O)C(C1CCN(C(=O)/C=C/c2ccc(F)c(Cl)c2)CC1)N1CCC(c2c[nH]c3ccccc23)CC1 (stereo not drawn) [Cpd 76, {1-[(2E)-3-(3-chloro-4-fluoro-phenyl)-acryloyl]-piperidin-4-yl}-[4-(1H-indol-3-yl)-piperidin-1-yl]-acetic acid]
20 nM	20 nM	COc1ccc2c(C3CCN(C(C(=O)O)C4CCN(C(=O)Nc5ccc(Cl)c(Cl)c5)CC4)CC3)c[nH]c2c1 (stereo not drawn) [Cpd 95, [1-(3,4-dichloro-phenylcarbamoyl)-piperidin-4-yl]-[4-(6-methoxy-1H-indol-3-yl)-piperidin-1-yl]-acetic acid]
40 nM	30 nM	O=C(O)C(C1CCN(C(=O)Nc2ccc(F)c(Cl)c2)CC1)N1CCC(c2c[nH]c3ccccc23)CC1 (stereo not drawn) [Cpd 48, [1-(3-chloro-4-fluoro-phenylcarbamoyl)-piperidin-4-yl]-[4-(1H-indol-3-yl)-piperidin-1-yl]-acetic acid]
60 nM	70 nM	O=C(O)C(C1CCN(C(=O)/C=C/c2ccc(F)cc2)CC1)N1CCC(c2c[nH]c3ccccc23)CC1 (stereo not drawn) [Cpd 77, {1-[(2E)-3-(4-fluoro-phenyl)-acryloyl]-piperidin-4-yl}-[4-(1H-indol-3-yl)-piperidin-1-yl]-acetic acid]
6 nM	5 nM	Cc1ccc(/C=C/C(=O)N2CCC(C(C(=O)O)N3CCC(c4c[nH]c5ccccc45)CC3)CC2)cc1F (stereo not drawn) [Cpd 74, {1-[(2E)-3-(3-fluoro-4-methyl-phenyl)-acryloyl]-piperidin-4-yl}-[4-(1H-indol-3-yl)-piperidin-1-yl]-acetic acid]
7 nM	20 nM	O=C(O)C(C1CCN(C(=O)/C=C/c2cccc(Br)c2)CC1)N1CCC(c2c[nH]c3ccccc23)CC1 (stereo not drawn) [Cpd 71, {1-[(2E)-3-(3-bromo-phenyl)-acryloyl]-piperidin-4-yl}-[4-(1H-indol-3-yl)-piperidin-1-yl]-acetic acid]
20 nM	3 nM	Cc1cccc(/C=C/C(=O)N2CCC(C(C(=O)O)N3CCC(c4c[nH]c5ccccc45)CC3)CC2)c1 (stereo not drawn) [Cpd 70, [4-(1H-indol-3-yl)-piperidin-1-yl]-{1-[(2E)-3-m-tolyl-acryloyl]-piperidin-4-yl}-acetic acid]
0.2 nM	10 nM	COc1ccc2[nH]cc(C3CCN(C(C(=O)O)C4CCN(C(=O)/C=C/c5ccc(Cl)c(Cl)c5)CC4)CC3)c2c1 (stereo not drawn) [Cpd 47, {1-[(2E)-3-(3,4-dichloro-phenyl)-acryloyl]-piperidin-4-yl}-[4-(5-methoxy-1H-indol-3-yl)-piperidin-1-yl]-acetic acid]
9 nM	4 nM	O=C(O)C(C1CCN(C(=O)/C=C/c2ccc(C(F)(F)F)c(F)c2)CC1)N1CCC(c2c[nH]c3ccccc23)CC1 (stereo not drawn) [Cpd 75, {1-[(2E)-3-(3-fluoro-4-trifluoromethyl-phenyl)-acryloyl]-piperidin-4-yl}-[4-(1H-indol-3-yl)-piperidin-1-yl]-acetic acid]
0.8 nM		COc1cccc2c(C3CCN(C(C(=O)O)C4CCN(C(=O)/C=C/c5cc(F)cc(F)c5)CC4)CC3)c[nH]c12 (stereo not drawn) [Cpd 42, {1-[(2E)-3-(3,5-difluoro-phenyl)-acryloyl]-piperidin-4-yl}-[4-(7-methoxy-1H-indol-3-yl)-piperidin-1-yl]-acetic acid]
30 nM		COc1cccc(/C=C/C(=O)N2CCC(C(C(=O)O)N3CCC(c4c[nH]c5ccccc45)CC3)CC2)c1 (stereo not drawn) [Cpd 72, [4-(1H-indol-3-yl)-piperidin-1-yl]-{1-[(2E)-3-(3-methoxy-phenyl)-acryloyl]-piperidin-4-yl}-acetic acid]
180 nM		O=C(O)C(C1CCN(C(=O)/C=C/c2cccc(F)c2)CC1)N1CCC(c2c[nH]c3ccccc23)CC1 (stereo not drawn) [Cpd 62, {1-[(2E)-3-(3-fluoro-phenyl)-acryloyl]-piperidin-4-yl}-[4-(1H-indol-3-yl)-piperidin-1-yl]-acetic acid]
70 nM		O=C(O)C(C1CCN(C(=O)/C=C/c2ccc(Br)cc2)CC1)N1CCC(c2c[nH]c3ccccc23)CC1 (stereo not drawn) [Cpd 60, {1-[(2E)-3-(4-bromo-phenyl)-acryloyl]-piperidin-4-yl}-[4-(1H-indol-3-yl)-piperidin-1-yl]-acetic acid]

Second part, the compound before the results:

Structure (SMILES)	IC50 (THP-1 cells)	IC50 (CCR2)
CC(=O)Nc1ccc2[nH]cc(C3CCN(C(C(=O)O)C4CCN(C(=O)/C=C/c5cc(F)c(F)c(F)c5)CC4)CC3)c2c1 (stereo not drawn) [Cpd 17, [4-(5-acetylamino-1H-indol-3-yl)-piperidin-1-yl]-{1-[(2E)-3-(3,4,5-trifluoro-phenyl)-acryloyl]-piperidin-4-yl}-acetic acid]	20 nM	160 nM
O=C(O)C(C1CCN(C(=O)/C=C/c2ccc(F)c(Br)c2)CC1)N1CCC(c2c[nH]c3ccccc23)CC1 (stereo not drawn) [Cpd 36, {1-[(2E)-3-(3-bromo-4-fluoro-phenyl)-acryloyl]-piperidin-4-yl}-[4-(1H-indol-3-yl)-piperidin-1-yl]-acetic acid]	0.4 nM	8 nM
O=C(O)C(C1CCN(C(=O)/C=C/c2cccc(C(F)(F)F)c2)CC1)N1CCC(c2c[nH]c3ccccc23)CC1 (stereo not drawn) [Cpd 35, [4-(1H-indol-3-yl)-piperidin-1-yl]-{1-[(2E)-3-(3-trifluoromethyl-phenyl)-acryloyl]-piperidin-4-yl}-acetic acid]	30 nM	8 nM
O=C(O)C(C1CCN(C(=O)/C=C/c2cc(F)cc(F)c2)CC1)N1CCC(c2c[nH]c3cc(F)ccc23)CC1 (stereo not drawn) [Cpd 24, {1-[(2E)-3-(3,5-difluoro-phenyl)-acryloyl]-piperidin-4-yl}-[4-(6-fluoro-1H-indol-3-yl)-piperidin-1-yl]-acetic acid]	0.7 nM	10 nM
O=C(O)C(C1CCN(C(=O)/C=C/c2cc(F)cc(F)c2)CC1)N1CCC(c2c[nH]c3ccc(F)cc23)CC1 (stereo not drawn) [Cpd 8, {1-[(2E)-3-(3,5-difluoro-phenyl)-acryloyl]-piperidin-4-yl}-[4-(5-fluoro-1H-indol-3-yl)-piperidin-1-yl]-acetic acid]	10 nM	
COc1ccc2[nH]cc(C3CCN(C(C(=O)O)C4CCN(C(=O)/C=C/c5cc(F)cc(F)c5)CC4)CC3)c2c1 (stereo not drawn) [Cpd 26, {1-[(2E)-3-(3,5-difluoro-phenyl)-acryloyl]-piperidin-4-yl}-[4-(5-methoxy-1H-indol-3-yl)-piperidin-1-yl]-acetic acid]	30 nM	
O=C(O)C(C1CCN(C(=O)/C=C/c2ccc(Cl)c(Cl)c2)CC1)N1CCC(c2c[nH]c3cc(F)ccc23)CC1 (stereo not drawn) [Cpd 39, {1-[(2E)-3-(3,4-dichloro-phenyl)-acryloyl]-piperidin-4-yl}-[4-(6-fluoro-1H-indol-3-yl)-piperidin-1-yl]-acetic acid]	1.9 nM	2 nM
O=C(O)C(C1CCN(C(=O)/C=C/c2ccc(Cl)cc2)CC1)N1CCC(c2c[nH]c3ccccc23)CC1 (stereo not drawn) [Cpd 34, {1-[(2E)-3-(4-chloro-phenyl)-acryloyl]-piperidin-4-yl}-[4-(1H-indol-3-yl)-piperidin-1-yl]-acetic acid]	6 nM	10 nM
O=C(O)C(C1CCN(C(=O)/C=C/c2cc(F)cc(F)c2)CC1)N1CCC(c2c[nH]c3cc(Cl)ccc23)CC1 (stereo not drawn) [Cpd 25, [4-(6-chloro-1H-indol-3-yl)-piperidin-1-yl]-{1-[(2E)-3-(3,5-difluoro-phenyl)-acryloyl]-piperidin-4-yl}-acetic acid]	10 nM	
O=C(O)C(C1CCN(C(=O)/C=C/c2cc(F)cc(F)c2)CC1)N1CCC(c2c[nH]c3ccc(O)cc23)CC1 (stereo not drawn) [Cpd 16, {1-[(2E)-3-(3,5-difluoro-phenyl)-acryloyl]-piperidin-4-yl}-[4-(5-hydroxy-1H-indol-3-yl)-piperidin-1-yl]-acetic acid]	20 nM	
O=C(O)C(C1CCN(C(=O)/C=C/c2ccc(Cl)c(Cl)c2)CC1)N1CCC(c2c[nH]c3ccc(F)cc23)CC1 (stereo not drawn) [Cpd 19, {1-[(2E)-3-(3,4-dichloro-phenyl)-acryloyl]-piperidin-4-yl}-[4-(5-fluoro-1H-indol-3-yl)-piperidin-1-yl]-acetic acid]	4 nM	
O=C(O)C(C1CCN(C(=O)/C=C/c2ccc(F)c(F)c2)CC1)N1CCC(c2c[nH]c3ccccc23)CC1 (stereo not drawn) [Cpd 22, {1-[(2E)-3-(3,4-difluoro-phenyl)-acryloyl]-piperidin-4-yl}-[4-(1H-indol-3-yl)-piperidin-1-yl]-acetic acid]	4 nM	
O=C(O)C(C1CCN(C(=O)Nc2ccc(F)c(F)c2)CC1)N1CCC(c2c[nH]c3ccccc23)CC1 (stereo not drawn) [Cpd 40, [1-(3,4-difluoro-phenylcarbamoyl)-piperidin-4-yl]-[4-(1H-indol-3-yl)-piperidin-1-yl]-acetic acid]	30 nM	
